# Source: patent US7572616B2, “Alternative oxidase and uses thereof” (priority 2005, dated 2009)
# Experiments:
# [1] = test system: Flp-In™ T-REx™-293 cells; experiment: Succinate oxidation by digitonin permeabilized cells, Clark oxygen electrode; format: cell-based, human; details: AOX-expressing cells, 100 μM propyl gallate added after cyanide
# [2] = test system: Drosophila mitochondria; experiment: Oxygen consumption of isolated mitochondrial suspensions from flies; format: biochemical, Drosophila melanogaster; details: mitochondria from AOX-expressing flies
# [3] = test system: Flp-In™ T-REx™-293 cells; format: cell-based, human
compound,measurement,setting,value
CCCOC(=O)c1cc(O)c(O)c(O)c1 [n-propyl gallate],inhibition of cyanide-resistant succinate oxidation,[1],fully inhibited
same,sensitivity of residual cyanide-insensitive respiratory activity to AOX inhibitors,[2]; cyanide present,sensitive
same,effect of AOX inhibitors on respiration when cyanide absent,[2]; no cyanide,only a small effect
same,inhibition of residual cyanide-insensitive respiration,[3],completely inhibited
same,inhibition of respiration in the presence of cyanide,[3],almost completely inhibited
